In patent US7943618B2, “Btk protein kinase inhibitors” (Roche Palo Alto LLC, priority 2007, dated 2011):
pIC50: −log10 of the molar value.

What was measured:
[1] = biological target: T1, Btk enzyme (His-tagged, full-length) (Homo sapiens, UniProt Q06187); experiment: Bruton's Tyrosine Kinase (Btk) Inhibition Assay (33P filtration capture); assay type: biochemical; conditions: Bruton's tyrosine kinase Assay (Example 34), 100 μM ATP
T1 construct: 5-10 nM Btk enzyme (His-tagged, full-length); His
Source text: Bruton's Tyrosine Kinase (Btk) Inhibition Assay
The assay is a capture of radioactive ^33P phosphorylated product through filtration. The interactions of Btk, biotinylated SH2 peptide substrate (Src homology), and ATP lead to phosphorylation of the peptide substrate. Biotinylated product is bound streptavidin sepharose beads. All bound, radiolabeled products are detected by scintillation counter.
Plates assayed are 96-well polypropylene (Greiner) and 96-well 1.2 μm hydrophilic PVDF filter plates (Millipore).
IC50 determinations are calculated from 10 data points per compound utilizing data produced from a standard 96-well plate assay template. One control compound and seven unknown inhibitors were tested on each plate and each plate was run twice. […] The control compound was staurosporine. Background was counted in the absence of peptide substrate. Total activity was determined in the presence of peptide substrate. The following protocol was used to determine Btk inhibition.
1) Sample preparation: The test compounds were diluted at half-log increments in assay buffer (imidazole, glycerol-2-phosphate, EGTA, MnCl2, MgCl2, BSA).
2) Bead preparation • a.) rinse beads by centrifuging at 500 g • b.) reconstitute the beads with PBS and EDTA to produce a 20% bead slurry
3) Pre-incubate reaction mix without substrate (assay buffer, DTT, ATP, ^33P ATP) and mix with substrate (assay buffer, DTT, ATP, ^33P ATP, peptide substrate) 30° C. for 15 min.
4) To start assay, pre-incubate 10 μL Btk in enzyme buffer (imidazole, glycerol-2-phosphate, BSA) and 10 μL of test compounds for 10 min at RT.
5) Add 30 μL reaction mixture without or with substrate to Btk and compounds.
6) Incubate 50 μL total assay mix for 30 min at 30° C.
7) Transfer 40 μL of assay to 150 μL bead slurry in filter plate to stop reaction.
8) Wash filter plate after 30 min, with following steps • a. 3×250 μL NaCl • b. 3×250 μL NaCl containing 1% phosphoric acid • c. 1×250 μL H2O
9) Dry plate for 1 h at 65° C. or overnight at RT
10) Add 50 μL microscint-20 and count ^33P cpm on scintillation counter.
Calculate percent activity from raw data in cpm percent activity=(sample−bkg)/(total activity−bkg)×100
Calculate IC50 from percent activity, using one-site dose response sigmoidal model y=A+((B−A)/(1+((x/C)^D))))

Ramos cells = experiment: Inhibition of B-cell Activation - B cell FLIPR assay in Ramos cells; assay type: cell-based; conditions: Homo sapiens, 0.5 h, intracellular calcium increase stimulated by 10 μg/mL anti-IgM, compounds incubated 30 min at RT
Source text: Inhibition of B-cell Activation—B cell FLIPR assay in Ramos cells
The B cell FLIPR assay is a cell based functional method of determining the effect of potential inhibitors of the intracellular calcium increase from stimulation by an anti-IgM antibody. Ramos cells (human Burkitt's lymphoma cell line. ATCC-No. CRL-1596) were cultivated in Growth Media (described below). One day prior to assay, Ramos cells were resuspended in fresh growth media (same as above) and set at a concentration of 0.5×10^6/mL in tissue culture flasks. On day of assay, cells are counted and set at a concentration of 1×10^6/mL1 in growth media supplemented with 1 μM FLUO-3AM(TefLabs Cat-No. 0116, prepared in anhydrous DMSO and 10% Pluronic acid) in a tissue culture flask, and incubated at 37° C. (4% CO2) for one h. To remove extracellular dye, cells were collected by centrifugation (5 min, 1000 rpm), resuspended in FLIPR buffer (described below) at 1×10^6 cells/mL and then dispensed into 96-well poly-D-lysine coated black/clear plates (BD Cat-No. 356692) at 1×10^5 cells per well. Test compounds were added at various concentrations ranging from 100 μM to 0.03 μM (7 concentrations, details below), and allowed to incubate with cells for 30 min at RT. Ramos cell Ca^2+ signaling was stimulated by the addition of 10 μg/mL anti-IgM (Southern Biotech, Cat-No. 2020-01) and measured on a FLIPR (Molecular Devices, captures images of 96 well plates using a CCD camera with an argon laser at 480nm excitation).
Growth Medium: RPMI 1640 medium with L-glutamine (Invitrogen, Cat-No. 61870-010), 10% Fetal Bovine Serum (FBS, Summit Biotechnology Cat-No. FP-100-05); 1 mM Sodium Pyruvate (Invitrogen Cat. No. 11360-070).
FLIPR buffer: HBSS (Invitrogen, Cat-No. 141175-079), 2 mM CaCl2 (Sigma Cat-No. C-4901), HEPES (Invitrogen, Cat-No. 15630-080), 2.5mM Probenecid (Sigma, Cat-No. P-8761), 0.1% BSA (Sigma, Cat-No. A-7906), 11 mM Glucose (Sigma, Cat-No. G-7528)
Compound dilution details:
In order to achieve the highest final assay concentration of 100 μM, 24 μL of 10 mM compound stock solution (made in DMSO) is added directly to 576 μL of FLIPR buffer. The test compounds are diluted in FLIPR Buffer (using Biomek 2000 robotic pipettor) resulting in the following dilution scheme: vehicle, 1.00×10^−4 M, 1.00×10^−5, 3.16×10^−6, 1.00×10^−6, 3.16×10^−7, 1.00×10^−7, 3.16×10^−8.
Intracellular increases in calcium were reported using a max-min statistic (subtracting the resting baseline from the peak caused by addition of the stimulatory antibody using a Molecular Devices FLIPR control and statistic exporting software. The IC50 was determined using a non-linear curve fit (GraphPad Prism software). Representative results are in Table III.

T1 sequence (Q06187 whole entry): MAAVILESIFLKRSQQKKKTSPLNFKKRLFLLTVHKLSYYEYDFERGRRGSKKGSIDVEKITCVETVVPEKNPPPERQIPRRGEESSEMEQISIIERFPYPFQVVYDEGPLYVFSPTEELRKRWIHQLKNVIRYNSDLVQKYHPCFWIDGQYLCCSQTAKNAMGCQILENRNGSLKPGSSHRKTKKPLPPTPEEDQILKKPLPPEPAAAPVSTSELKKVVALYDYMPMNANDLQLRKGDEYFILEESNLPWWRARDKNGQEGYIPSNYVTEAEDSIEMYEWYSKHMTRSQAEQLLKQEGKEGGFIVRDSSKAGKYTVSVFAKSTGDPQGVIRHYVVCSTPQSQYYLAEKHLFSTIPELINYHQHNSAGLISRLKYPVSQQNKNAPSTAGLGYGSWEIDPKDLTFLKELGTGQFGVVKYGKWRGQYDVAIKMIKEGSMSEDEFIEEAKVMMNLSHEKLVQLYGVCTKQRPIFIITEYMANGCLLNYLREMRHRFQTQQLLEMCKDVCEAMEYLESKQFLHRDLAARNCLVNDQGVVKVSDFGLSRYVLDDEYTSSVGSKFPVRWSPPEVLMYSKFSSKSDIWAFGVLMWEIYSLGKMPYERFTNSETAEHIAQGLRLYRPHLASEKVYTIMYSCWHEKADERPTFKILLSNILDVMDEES

Row | Compound | pIC50 ([1]; Table I pyridazinones) | melting point | pIC50 (Ramos cells) | pIC50 ([1]; Table II pyridinones)
1 | Cc1c(NC(=O)c2ccc(C(C)(C)C)cc2)cccc1-c1cc(Nc2ccc(C(=O)N3CCOCC3)cc2)c(=O)n(C)n1 [Compound I-24] | 6.96 | 157 to 158 °C |  | 
2 | Cn1nc(-c2cccc(NC(=O)c3ccc(C(C)(C)C)cc3)c2)cc(Nc2ccc(C(=O)N3CCOCC3)cn2)c1=O [Compound I-25] | 6.92 | 229 to 230 °C |  | 
3 | CCNC(=O)Nc1cc(-c2cccc(NC(=O)c3ccc(C(C)(C)C)cc3)c2C)nn(C)c1=O [Compound I-27] | 6.91 | 278 to 279 °C |  | 
4 | COc1cc(C(C)(C)C)ccc1C(=O)Nc1cccc(-c2cc(Nc3ccc(C(=O)N4CCOCC4)cn3)c(=O)n(C)n2)c1 [Compound I-30] | 7.23 | 216 to 217 °C |  | 
5 | Cn1nc(-c2cccc(CC(=O)N3CCCC3)c2)cc(Nc2ccc(C(=O)N3CCOCC3)cn2)c1=O [Compound I-33] | 4.79 | 117 to 118 °C |  | 
6 | CC(C)OC1CN(C(=O)Cc2cccc(-c3cc(Nc4ccc(C(=O)N5CCOCC5)cn4)c(=O)n(C)n3)c2)C1 [Compound I-35] | 6.38 | 92 to 93 °C |  | 
7 | Cn1nc(-c2cccc(CC(=O)OCCOC(C)(C)C)c2)cc(Nc2ccc(C(=O)N3CCOCC3)cn2)c1=O [Compound I-36] | 5.66 | 80 to 81 °C |  | 
8 | Cn1nc(-c2cccc(CC(=O)N3Cc4ccccc4C3)c2)cc(Nc2ccc(C(=O)N3CCOCC3)cn2)c1=O [Compound I-40] | 6.17 | 179 to 180 °C |  | 
9 | CC(C)N1CCN(C(=O)Cc2cccc(-c3cc(Nc4ccc(C(=O)N5CCOCC5)cn4)c(=O)n(C)n3)c2)CC1 [Compound I-41] | 5.20 | 209 to 210 °C |  | 
10 | Cn1nc(-c2cccc(CC(=O)N3CCC(C(C)(C)C)CC3)c2)cc(Nc2ccc(C(=O)N3CCOCC3)cn2)c1=O [Compound I-42] | 5.63 | 231 to 232 °C |  | 
11 | Cn1nc(-c2cccc(CC(=O)NCCC(C)(C)C)c2)cc(Nc2ccc(C(=O)N3CCOCC3)cn2)c1=O [Compound I-43] | 5.20 | 138 to 139 °C |  | 
12 | Cc1c(NC(=O)c2ccc(C(C)(C)C)cc2)cccc1-c1cc(Nc2ccc(C(=O)N3CCOCC3)cn2)c(=O)n(C)c1 [II-2, 4-tert-Butyl-N-(2-methyl-3-{1-methyl-5-[5-(morpholine-4-carbonyl)-pyridin-2-ylamino]-6-oxo-1,6-dihydro-pyridin-3-yl}-phenyl)-benzamide] |  |  | 7.17 | 
13 | Cc1c(NC(=O)c2ccc(C(C)(C)C)cc2)cccc1-c1cc(NC(=O)NC(C)C)c(=O)n(C)c1 [II-6] |  | 185 to 186 °C |  | 6.51
14 | Cc1c(NC(=O)c2ccc(C(C)(C)C)cc2)cccc1-c1cc(NC(=O)NCC(F)(F)F)c(=O)n(C)c1 [II-7] |  | 258 to 259 °C |  | 6.06
15 | Cc1c(NC(=O)c2ccc(C(C)(C)C)cc2)cccc1-c1cc(NC(=O)Nc2ccccc2)c(=O)n(C)c1 [II-8] |  | 219 to 220 °C |  | 5.14
16 | Cc1c(NC(=O)c2ccc(C(C)(C)C)cc2)cccc1-c1cc(NC(=O)NCc2ccccc2)c(=O)n(C)c1 [II-9] |  | 169 to 170 °C |  | 5.91
17 | CNC(=O)Nc1cc(-c2cccc(NC(=O)c3cc4ccccc4s3)c2C)cn(C)c1=O [II-10] |  | 286 to 287 °C |  | 6.88
18 | CNC(=O)Nc1cc(-c2cccc(NC(=O)c3cc4c(s3)CCCC4)c2C)cn(C)c1=O [II-11, 4,5,6,7-Tetrahydro-benzo[b]thiophene-2-carboxylic acid{2-methyl-3-[1-methyl-5-(3-methyl-ureido)-6-oxo-1,6-dihydro-pyridin-3-yl]-phenyl}-amide] |  | 254 to 255 °C |  | 7.40
19 | CNC(=O)Nc1cc(-c2cccc(NC(=O)N3Cc4ccc(F)cc4C3)c2C)cn(C)c1=O [II-14] |  | 262 to 263 °C |  | 5.71
20 | Cc1c(NC(=O)c2ccc(C(C)(C)C)cc2)cccc1-c1cc(NC(=O)NCCN(C)C)c(=O)n(C)c1 [II-16] |  | 164 to 165 °C |  | 6.89
21 | CNC(=O)Nc1cc(-c2cccc(NC(=O)N3Cc4ccccc4C3)c2C)cn(C)c1=O [II-17, 1,3-Dihydro-isoindole-2-carboxylic acid{2-methyl-3-[1-methyl-5-(3-methyl-ureido)-6-oxo-1,6-dihydro-pyridin-3-yl]-phenyl}-amide] |  | 264 to 265 °C |  | 6.18
22 | Cc1c(NC(=O)c2ccc(C(C)(C)C)cc2)cccc1-c1cc(NC(=O)NCCO)c(=O)n(C)c1 [II-18] |  | 220 to 221 °C |  | 7.42
23 | Cc1c(NC(=O)c2ccc(C(C)(C)C)cc2)cccc1-c1cc(NC(=O)NCCCN(C)C)c(=O)n(C)c1 [II-22] |  | 194 to 195 °C |  | 7.54
24 | CNC(=O)Nc1cc(-c2cccc(CC(=O)N3CC(OC(C)(C)C)C3)c2)cn(C)c1=O [II-29, 1-(5-{3-[2-(3-tert-Butoxy-azetidin-1-yl)-2-oxo-ethyl]-phenyl}-1-methyl-2-oxo-1,2-dihydro-pyridin-3-yl)-3-methyl-urea] |  | 125 to 126 °C |  | 5.85
25 | CNC(=O)Nc1cc(-c2cccc(CC(=O)N3CC(OC(C)C)C3)c2)cn(C)c1=O [II-30] |  | 118 to 119 °C |  | 5.36
26 | CNC(=O)Nc1cc(-c2cccc(CC(=O)N3Cc4ccccc4C3)c2)cn(C)c1=O [II-45] |  | 251 to 252 °C |  | 5.81
27 | CNC(=O)Nc1cc(-c2cccc(CC(=O)N3CC(CC(C)(C)O)C3)c2)cn(C)c1=O [II-47] |  | 113 to 114 °C |  | 4.26
28 | Cn1cc(-c2cccc(NC(=O)c3ccc(C(C)(C)C)cc3)c2CO)cc(Nc2ccc(C(=O)N3CCOCC3)cn2)c1=O [II-58] |  |  | 7.82 | 
29 | CCN(CC)Cc1ccc(Nc2cc(-c3cccc(NC(=O)c4ccc(C5(F)CC5)cc4)c3CO)cn(C)c2=O)nc1 [II-70, N-{3-[5-(5-Diethylaminomethyl-pyridin-2-ylamino)-1-methyl-6-oxo-1,6-dihydro-pyridin-3-yl]-2-hydroxymethyl-phenyl}-4-(1-fluoro-cyclopropyl)-benzamide] |  | 203 to 204 °C |  | > 8.00
